Ends that are not written are not given here.
Columns and labels:
[1] = molecular target: T1, delta2 opioid receptor (Mus musculus, UniProt P32300); assay: Agonist effect at the delta2 opioid receptor (DOP), cell impedance; type: cell-based
T1 construct: host or cells: unnamed cells 'bearing the delta2 opioid receptor'
Procedure: Frozen spinach leaves were thawed and disrupted in fine particles a blender. This juice was further treated with ultrasounds to disrupt cells and proteins were recovered by acidic precipitation. These proteins were then digested by several enzymes, including pepsin and papain. The hydrolysate was purified (ultrafiltration), fractionated and stored before testing. Meanwhile, synthetic peptides were ordered from a manufacturer. The peptides and the hydrolysates were tested on cells bearing the delta2 opioid receptor and cell impedance was measured to evaluate the binding activity of the tested compounds (Law and Loh, 1993).
The EC50 values (concentration producing a half-maximal specific response) and IC50 values (concentration causing a half-maximal inhibition of the control specific agonist response) were determined by non-linear regression analysis of the concentration-response curves generated with mean replicate values using Hill equation curve fitting (Y=D+[(A D)/(1+(C/C50)nH)], where Y=specific response, D=minimum specific response, A=maximum specific response, C=compound concentration, and C50=EC50 or IC50, and nH=slope factor).

[2] = test system: reconstructed human epidermis (RHE); assay: Gene expression (RT-qPCR array) in inflammatory reconstructed human epidermis; type: cell-based; conditions: with cytokines and peptide 0.3 PPM; versus non stimulated RHE
Procedure: Transcriptional effects of a peptide (YPLDLF, SEQ ID No 1) on gene expression were researched on a reconstructed human epidermis (RHE) model under inflammatory conditions. The inflammation of the RHE was induced using a mix of cytokines (IL-17+OSM+TNF-α). The effects on gene expression were evaluated using RT-qPCR technology. Extracted mRNA was analyzed on a customized PCR array designed by the study sponsor and containing 64 target genes (including 2 housekeeping genes) selected for their role in keratinocyte differentiation, or their involvement in cell junctions and lipid synthesis, or their relation to opioid receptor delta (DOR).
Reconstructed human epidermis (RHE) of 11 days old was prepared according to a derived method described by Poumay et al. (2004). These RHE were cultivated at 37° C. and 5% of CO2 in a specific maintenance medium.
The RHE were cultured in assay medium containing or not (controls) the test compounds or the reference […] inhibitor I at 10 μM) and pre-incubated for 24 hours. Epidermises were then stimulated or not (non-stimulated control) with a cytokine mix (IL-17+OSM+TNF-α) at 3 ng/ml and the epidermises were incubated for 24 hours. All experimental conditions were performed in n=2.
At the end of incubation, the supernatants were collected and the RHE were washed in phosphate buffered saline solution (PBS) and immediately dry-frozen at −80° C.
The expression of markers was analyzed using RT-qPCR method on mRNA extracted from RHE for each treatment (before RNA extraction the replicates were pooled).
Analysis of gene expression was performed in n=2 using a customized PCR array dedicated to research and adapted to ‘screening’ format.
Total RNA was extracted from each sample using TriPure Isolation Reagent® according to the supplier's instructions. The amount and quality of RNA were evaluated using a lab-on-a-chip Bioanalyzer (Agilent technologies). The RNA quality controls are presented in appendix. Potential contaminant traces of genomic DNA were removed using the DNAfree system (Ambion). The reverse-transcription of mRNA was conducted in presence of oligo(dT) and Superscript II reverse-transcriptase. Quantification of cDNA was performed using Nanovue (GE Healthcare) and adjustment of cDNA at 10 ng/μl.
The PCRs (Polymerase Chain Reactions) were performed using the <<LightCycler®>> system (Roche Molecular System Inc.) according to supplier's instructions. This system allows rapid and powerful PCRs, after determining analysis conditions of the test primers.
The reaction mix (10 μl final) was added as follows: • 2.5 μl of cDNA at 10 ng/μl, • primers forward and reverse, • reagent mix containing taq DNA polymerase, SYBR Green I and MgCl2. Data Management of Quantitative PCR
The incorporation of fluorescence in amplified DNA was continuously measured during the PCR cycles. […] The value selected for RE calculations is the “output point” (Ct) of the fluorescence curve. For a considered marker, the highest is the cycle number; the lowest is the mRNA quantity. The RE value was expressed in arbitrary units (AU) according to the formula: (½^number of cycles)×10^6.

[3] = percent of control specific agonist response (DPDPE)

T1 sequence (P32300 whole entry): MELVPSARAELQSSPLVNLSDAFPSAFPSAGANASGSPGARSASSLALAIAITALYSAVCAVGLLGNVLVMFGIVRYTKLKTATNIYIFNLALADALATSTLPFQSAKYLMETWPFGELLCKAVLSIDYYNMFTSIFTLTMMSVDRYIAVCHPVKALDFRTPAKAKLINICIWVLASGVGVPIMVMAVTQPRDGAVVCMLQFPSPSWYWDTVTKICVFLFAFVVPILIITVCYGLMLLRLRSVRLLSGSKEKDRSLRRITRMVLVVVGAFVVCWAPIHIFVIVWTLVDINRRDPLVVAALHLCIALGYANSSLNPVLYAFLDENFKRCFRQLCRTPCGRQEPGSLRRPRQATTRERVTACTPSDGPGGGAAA

## YPLDLF [YPLDLF]
[1]
  EC50: 3.9 µM
[1]; [3]
  A (Hill curve fit parameter): −8.3
  D (Hill curve fit parameter): 100.0
[2]
  Relative expression of ACSS2: 113 % Control (Mean HK)
  Relative expression of ADRB2: 259 % Control (Mean HK)
  Relative expression of BIRC5: 88 % Control (Mean HK)
  Relative expression of CALML5 (Calmodulin-like 5): 72 % Control (Mean HK)
  Relative expression of CASP3: 104 % Control (Mean HK)
  Relative expression of CDH1 (E-cadherin): 126 % Control (Mean HK)
  Relative expression of CDSN (Corneodesmosin): 161 % Control (Mean HK)
  Relative expression of CLDN1 (Claudin 1): 128 % Control (Mean HK)
  Relative expression of CLDN2 (Claudin 2): 121 % Control (Mean HK)
  Relative expression of CREB1: 109 % Control (Mean HK)
  Relative expression of CRNN (Cornulin): 71 % Control (Mean HK)
  Relative expression of CTNNA1: 117 % Control (Mean HK)
  Relative expression of CTNNB1: 134 % Control (Mean HK)
  Relative expression of DSG1 (Desmoglein 1): 98 % Control (Mean HK)
  Relative expression of DSP (Desmoplakin): 107 % Control (Mean HK)
  Relative expression of DST (Dystonin): 93 % Control (Mean HK)
  Relative expression of EGFR: 141 % Control (Mean HK)
  Relative expression of EPPK1 (Epiplakin 1): 82 % Control (Mean HK)
  Relative expression of EVPL (Envoplakin): 132 % Control (Mean HK)
  Relative expression of F11R: 115 % Control (Mean HK)
  Relative expression of FLG (Filaggrin): 117 % Control (Mean HK)
  Relative expression of GAPDH: 116 % Control (Mean HK)
  Relative expression of GBA: 110 % Control (Mean HK)
  Relative expression of GJA1: 111 % Control (Mean HK)
  Relative expression of GJA5: 90 % Control (Mean HK)
  Relative expression of GJB2: 131 % Control (Mean HK)
  Relative expression of GJB3: 111 % Control (Mean HK)
  Relative expression of GJB4: 77 % Control (Mean HK)
  Relative expression of GJB5: 122 % Control (Mean HK)
  Relative expression of GJB6: 203 % Control (Mean HK)
  Relative expression of GJC1: 126 % Control (Mean HK)
  Relative expression of GJD3: 487 % Control (Mean HK)
  Relative expression of GNAS: 130 % Control (Mean HK)
  Relative expression of ITGA2: 108 % Control (Mean HK)
  Relative expression of ITGAV: 103 % Control (Mean HK)
  Relative expression of IVL (Involucrin): 119 % Control (Mean HK)
  Relative expression of KRT1 (Keratin 1): 140 % Control (Mean HK)
  Relative expression of KRT10 (Keratin 10): 145 % Control (Mean HK)
  Relative expression of KRT19 (Keratin 19): 134 % Control (Mean HK)
  Relative expression of LOR (Loricrin): 121 % Control (Mean HK)
  Relative expression of MAPK1: 108 % Control (Mean HK)
  Relative expression of MAPK14: 109 % Control (Mean HK)
  Relative expression of OCLN (Occludin): 131 % Control (Mean HK)
  Relative expression of ODC1: 110 % Control (Mean HK)
  Relative expression of OPRD1 (Opioid receptor, delta 1): 101 % Control (Mean HK)
  Relative expression of PADI1: 105 % Control (Mean HK)
  Relative expression of PANX1 (Pannexin 1): 133 % Control (Mean HK)
  Relative expression of PTGS2: 119 % Control (Mean HK)
  Relative expression of PVRL1: 131 % Control (Mean HK)
  Relative expression of RPS28 (Ribosomal protein S28): 91 % Control (Mean HK)
  Relative expression of SFN (Stratifin): 143 % Control (Mean HK)
  Relative expression of SLC1A3: 100 % Control (Mean HK)
  Relative expression of SMPD1: 87 % Control (Mean HK)
  Relative expression of SPRR1A: 142 % Control (Mean HK)
  Relative expression of SPRR1B: 127 % Control (Mean HK)
  Relative expression of SPRR2A: 111 % Control (Mean HK)
  Relative expression of SPTLC1: 120 % Control (Mean HK)
  Relative expression of STAT3: 120 % Control (Mean HK)
  Relative expression of SULT2B1: 173 % Control (Mean HK)
  Relative expression of TGM1 (Transglutaminase 1): 108 % Control (Mean HK)
  Relative expression of TJAP1: 81 % Control (Mean HK)
  Relative expression of TJP1: 129 % Control (Mean HK)
  Relative expression of UGCG: 117 % Control (Mean HK)

Source: patent US9107852B2, “Uses of agonists of delta opioid receptor in cosmetic and dermocosmetic field” (Induchem Holding AG, priority 2012, dated 2015)
